Legend:
Mcl-1:Bim complex [1] = test: Heterodimer to monomer ratio by flow cytometry in SET2 cells (FIG. 18); type: cell-based; conditions: A1155463 treated SET2 cells, detected with F05
Procedure: (§1) FIG. 18 is a graph showing a ratio of measured heterodimer to monomer in Bcl-xL dependent cell lines: Bcl-2:Bim, Mcl-1:Bim, and Bcl-xL:Bim. Bcl-xL:Bim shifts against Bcl-xL and Mcl-1 upon treatment. In this experiment, a shift away from the complex is detected when the sample is treated with BCLXL targeted BH3 mimetic (A1155463).

Mcl-1:Bim complex [2] = test: Heterodimer to monomer ratio by flow cytometry in UKE-1 cells (FIG. 18); type: cell-based; conditions: A1155463 treated UKE-1 cells, detected with F05
Procedure: as §1

BCLXL: BIM = BCLXL: BIM (Homo sapiens, UniProt Q07817); test: PRIMAB intra-cellular immunofluorescent staining and flow cytometry in U266B1 cells (FIG. 19); conditions: BCLXL primed U266B1 cells, HSBXB PRIMAB
Procedure: Priming complexes in leukemia cells were measured by intra-cellular immunofluorescent staining with PRIMABs and detected by flow cytometry.
BCL2:BIM complex [3] = biological target: T1, BCL2:BIM complex (Homo sapiens, UniProt P10415); test: PRIMAB intra-cellular immunofluorescent staining and flow cytometry in U2932 cells (FIG. 19); type: cell-based; parameters: endogenous in cells; host or cells: U2932; conditions: BCL2 primed U2932 cells
From the text: These shifts match BH3 mimetic selectivity.

BCL2:BIM complex [4] = biological target: T1, BCL2:BIM complex; test: Flow cytometry of BH3 mimetic treated cells, heterodimer-specific vs monomer antibodies (FIG. 17); type: cell-based; parameters: endogenous in cells; conditions: detected with 2H3 (BCL2:BIM) and F05 (MCL-1:BIM)
Procedure: This shift is detected by MCL-1:BIM specific antibody (F05) relative to total MCL-1 in the cell. In this experiment, cells are treated with specific BCL2 targeted BH3 mimetic (AZD4320, Medchemexpress), fixed, permeabilized, and stained with heterodimer-specific antibodies and standard antibodies against monomers. Signals are measured on FLOW Cytometer, show relative signal and the data shown in FIG. 17 is a ratio of complex/monomer signal. FIG. 17 is a graph showing a BCL2:BIM complex specific antibody that tracts with complex disruption by a BH3 mimetic.

T1 sequence (P10415 whole entry, one chain of several): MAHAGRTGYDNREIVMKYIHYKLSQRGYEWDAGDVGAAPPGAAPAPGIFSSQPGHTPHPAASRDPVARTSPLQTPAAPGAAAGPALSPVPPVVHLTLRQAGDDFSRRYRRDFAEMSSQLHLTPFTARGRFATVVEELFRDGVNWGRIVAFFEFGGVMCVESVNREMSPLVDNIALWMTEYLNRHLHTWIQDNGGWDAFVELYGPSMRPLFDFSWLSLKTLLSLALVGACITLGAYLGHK
Sequence of BCLXL: BIM (Q07817 whole entry): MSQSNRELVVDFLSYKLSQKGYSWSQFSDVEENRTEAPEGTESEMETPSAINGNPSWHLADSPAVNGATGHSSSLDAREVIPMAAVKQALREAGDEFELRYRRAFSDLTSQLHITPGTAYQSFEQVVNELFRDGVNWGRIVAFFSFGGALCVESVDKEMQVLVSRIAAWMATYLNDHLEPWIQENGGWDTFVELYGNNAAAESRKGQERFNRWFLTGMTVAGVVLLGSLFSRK

For `CN(C)CC#Cc1ccc(OCCCc2sc(N3CCc4cccc(C(=O)Nc5nc6ccccc6s5)c4C3)nc2C(=O)O)c(F)c1` [A1155463], the “ratio of measured heterodimer to monomer” value (Mcl-1:Bim complex [1]) was “shift and “priming” to MCL1:BIM complex”, the “ratio of measured heterodimer to monomer” value (Mcl-1:Bim complex [2]) was “shift and “priming” to MCL1:BIM complex” and the “priming complex shift by PRIMAB readout” value (BCLXL: BIM) was “BCLXL: BIM shift”.

`CC1(C)CCC(CN2CCN(c3ccc(C(=O)NS(=O)(=O)c4ccc(NCC5CCOCC5)c([N+](=O)[O-])c4)c(Oc4cnc5[nH]ccc5c4)c3)CC2)=C(c2ccc(Cl)cc2)C1` [ABT-199] was tested, and the “priming complex shift by PRIMAB readout” value (BCL2:BIM complex [3]) was “disruption of BCL2: BIM complex”.

`CN(CCO)CC[C@H](CSc1ccccc1)Nc1ccc(S(=O)(=O)NC(=O)c2ccc(N3CCC([C@@H](O)c4ccccc4-c4ccc(Cl)cc4)CC3)cc2)cc1S(=O)(=O)C(F)(F)F` [AZD4320] was tested, and the “ratio of complex/monomer signal” value (BCL2:BIM complex [4]) was “shift from the BCL2:BIM complex to the MCL-1:BIM complex”.
